From ChEMBL document CHEMBL5465560, “Selectivity Literature for EUbOPEN Chemogenomic Library” (2024)

Legend:
[1] = molecular target: Ribosomal protein S6 kinase alpha-1 (Homo sapiens, UniProt Q15418); experiment: Selectivity interaction (ActivX KiNativ screen (ex vivo kinase selectivity in human PBMCs)) EUB0001619a RPS6KA1; type: cell-based; settings: PBMC, at 1 µM
[2] = molecular target: Mitogen-activated protein kinase 6 (Homo sapiens) (UniProt Q16659); settings: at 10 µM
[3] = molecular target: Mitogen-activated protein kinase kinase kinase 11 (Homo sapiens) (UniProt Q16584); experiment: Selectivity interaction (ActivX KiNativ screen (kinase selectivity in THP-1 cell lysates)) EUB0000639a MAP3K11; type: subcellular; settings: lysate, at 0.01 µM
Mitogen-activated protein kinase kinase kinase 11 (Homo sapiens), sequence (Q16584 whole entry, looked up, the tested form may be a part): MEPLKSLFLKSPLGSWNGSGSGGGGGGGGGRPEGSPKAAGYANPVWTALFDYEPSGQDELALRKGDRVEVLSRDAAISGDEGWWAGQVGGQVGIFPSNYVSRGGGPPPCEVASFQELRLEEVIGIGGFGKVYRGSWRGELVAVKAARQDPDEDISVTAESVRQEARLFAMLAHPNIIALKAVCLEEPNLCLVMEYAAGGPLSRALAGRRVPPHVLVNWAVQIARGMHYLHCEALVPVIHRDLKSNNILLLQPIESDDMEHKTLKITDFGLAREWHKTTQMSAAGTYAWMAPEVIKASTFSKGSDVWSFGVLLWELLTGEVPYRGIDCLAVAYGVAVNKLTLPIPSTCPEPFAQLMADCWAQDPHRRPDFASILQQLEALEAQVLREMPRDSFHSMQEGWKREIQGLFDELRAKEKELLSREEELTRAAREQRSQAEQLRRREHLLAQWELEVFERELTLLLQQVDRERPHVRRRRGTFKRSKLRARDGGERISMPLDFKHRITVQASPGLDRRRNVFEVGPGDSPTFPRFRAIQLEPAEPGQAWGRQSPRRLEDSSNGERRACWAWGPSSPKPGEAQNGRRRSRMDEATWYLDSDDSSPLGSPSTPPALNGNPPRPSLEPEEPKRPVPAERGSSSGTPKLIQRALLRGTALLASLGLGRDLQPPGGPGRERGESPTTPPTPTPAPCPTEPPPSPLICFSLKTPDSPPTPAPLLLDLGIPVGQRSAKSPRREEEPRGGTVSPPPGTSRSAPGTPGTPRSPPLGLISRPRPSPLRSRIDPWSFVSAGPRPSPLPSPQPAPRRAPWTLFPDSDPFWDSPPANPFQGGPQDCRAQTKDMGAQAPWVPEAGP

[4] = molecular target: TP53-binding protein 1 (Homo sapiens) (UniProt Q12888); experiment: Selectivity interaction (PWWP, WD40, and Tudor domain panel (DSLS measurements, literature)) EUB0000270b TP53BP1
[5] = molecular target: T1, Serine/threonine-protein kinase Chk1 (Homo sapiens) (UniProt O14757); experiment: Selectivity interaction (KinomeScan (DiscoverX)) EUB0001049a CHEK1; settings: at 1 µM
T1 sequence (whole entry): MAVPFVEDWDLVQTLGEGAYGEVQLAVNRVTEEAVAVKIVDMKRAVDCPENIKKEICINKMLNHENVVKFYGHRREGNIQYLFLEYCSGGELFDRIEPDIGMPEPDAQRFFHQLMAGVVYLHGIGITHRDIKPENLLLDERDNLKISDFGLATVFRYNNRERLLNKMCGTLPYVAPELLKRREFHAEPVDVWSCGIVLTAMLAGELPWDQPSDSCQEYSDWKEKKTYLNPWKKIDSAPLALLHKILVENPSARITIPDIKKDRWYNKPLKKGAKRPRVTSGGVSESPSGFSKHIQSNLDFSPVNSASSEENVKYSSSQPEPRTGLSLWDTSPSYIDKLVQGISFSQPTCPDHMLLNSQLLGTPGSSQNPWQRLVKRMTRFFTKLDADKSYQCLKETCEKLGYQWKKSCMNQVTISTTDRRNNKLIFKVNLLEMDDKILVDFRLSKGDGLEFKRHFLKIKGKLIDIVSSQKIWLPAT

[6] = molecular target: Tyrosine-protein kinase Lck (Homo sapiens, UniProt P06239); experiment: Selectivity interaction (KinomeScan (DiscoverX)) EUB0001049a LCK; settings: at 1 µM
[7] = molecular target: T2, Serine/threonine-protein kinase Nek9 (Homo sapiens) (UniProt Q8TD19); experiment: Selectivity interaction (KinomeScan (DiscoverX)) EUB0001049a NEK9; settings: at 1 µM
T2 sequence (whole entry): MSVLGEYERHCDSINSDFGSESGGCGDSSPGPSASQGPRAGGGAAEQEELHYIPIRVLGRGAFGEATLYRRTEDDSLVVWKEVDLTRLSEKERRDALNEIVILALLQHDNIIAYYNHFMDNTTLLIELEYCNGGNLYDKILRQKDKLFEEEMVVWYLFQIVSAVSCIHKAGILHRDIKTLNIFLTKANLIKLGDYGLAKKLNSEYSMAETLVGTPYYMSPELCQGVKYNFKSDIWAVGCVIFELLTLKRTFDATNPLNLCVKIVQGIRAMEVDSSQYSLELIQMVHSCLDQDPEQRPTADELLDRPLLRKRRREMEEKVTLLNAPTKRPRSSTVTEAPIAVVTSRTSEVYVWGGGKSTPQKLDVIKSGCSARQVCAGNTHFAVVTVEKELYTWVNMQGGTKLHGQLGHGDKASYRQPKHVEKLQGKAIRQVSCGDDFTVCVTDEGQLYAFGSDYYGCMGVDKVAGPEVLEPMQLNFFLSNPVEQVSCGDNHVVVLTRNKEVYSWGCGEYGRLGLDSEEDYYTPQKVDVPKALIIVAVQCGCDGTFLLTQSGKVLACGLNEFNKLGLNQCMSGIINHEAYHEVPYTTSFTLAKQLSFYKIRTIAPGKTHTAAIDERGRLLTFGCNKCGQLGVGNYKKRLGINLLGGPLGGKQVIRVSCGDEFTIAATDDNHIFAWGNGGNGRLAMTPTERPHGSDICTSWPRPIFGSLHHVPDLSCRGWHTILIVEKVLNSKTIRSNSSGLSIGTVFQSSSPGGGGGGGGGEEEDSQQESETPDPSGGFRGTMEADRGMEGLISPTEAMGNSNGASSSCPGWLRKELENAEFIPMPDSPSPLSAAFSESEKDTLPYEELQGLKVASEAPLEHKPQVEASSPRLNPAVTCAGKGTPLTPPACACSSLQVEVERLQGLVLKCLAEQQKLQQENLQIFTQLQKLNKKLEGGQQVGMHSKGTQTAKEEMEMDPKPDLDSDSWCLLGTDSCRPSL

[8] = molecular target: 5-hydroxytryptamine receptor 1B (Homo sapiens) (UniProt P28222); experiment: Selectivity interaction (Panel of kinases, GPCRs, ion channels and transporters (enzymatic assay)) EUB0000223bCl HTR1B
5-hydroxytryptamine receptor 1B (Homo sapiens), sequence (P28222 whole entry): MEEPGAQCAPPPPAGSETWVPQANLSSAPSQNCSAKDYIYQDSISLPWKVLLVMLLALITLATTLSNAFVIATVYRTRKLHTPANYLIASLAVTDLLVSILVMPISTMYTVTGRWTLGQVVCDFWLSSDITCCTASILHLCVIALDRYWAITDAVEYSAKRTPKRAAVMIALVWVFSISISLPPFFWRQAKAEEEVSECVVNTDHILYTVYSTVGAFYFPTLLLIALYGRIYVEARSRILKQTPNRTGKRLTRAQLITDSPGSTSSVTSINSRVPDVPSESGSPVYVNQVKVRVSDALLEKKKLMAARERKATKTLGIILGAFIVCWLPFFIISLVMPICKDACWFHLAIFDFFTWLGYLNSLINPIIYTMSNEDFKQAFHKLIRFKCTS

[9] = molecular target: Serine/threonine-protein kinase mTOR (Homo sapiens, UniProt P42345); settings: at 10 µM
[10] = molecular target: T3, Inhibitor of nuclear factor kappa-B kinase subunit beta (Homo sapiens) (UniProt O14920); experiment: Selectivity interaction (Kinase panel (Z-LYTE Assay)) EUB0001632a IKBKB; settings: at 10 µM
T3 sequence (whole entry): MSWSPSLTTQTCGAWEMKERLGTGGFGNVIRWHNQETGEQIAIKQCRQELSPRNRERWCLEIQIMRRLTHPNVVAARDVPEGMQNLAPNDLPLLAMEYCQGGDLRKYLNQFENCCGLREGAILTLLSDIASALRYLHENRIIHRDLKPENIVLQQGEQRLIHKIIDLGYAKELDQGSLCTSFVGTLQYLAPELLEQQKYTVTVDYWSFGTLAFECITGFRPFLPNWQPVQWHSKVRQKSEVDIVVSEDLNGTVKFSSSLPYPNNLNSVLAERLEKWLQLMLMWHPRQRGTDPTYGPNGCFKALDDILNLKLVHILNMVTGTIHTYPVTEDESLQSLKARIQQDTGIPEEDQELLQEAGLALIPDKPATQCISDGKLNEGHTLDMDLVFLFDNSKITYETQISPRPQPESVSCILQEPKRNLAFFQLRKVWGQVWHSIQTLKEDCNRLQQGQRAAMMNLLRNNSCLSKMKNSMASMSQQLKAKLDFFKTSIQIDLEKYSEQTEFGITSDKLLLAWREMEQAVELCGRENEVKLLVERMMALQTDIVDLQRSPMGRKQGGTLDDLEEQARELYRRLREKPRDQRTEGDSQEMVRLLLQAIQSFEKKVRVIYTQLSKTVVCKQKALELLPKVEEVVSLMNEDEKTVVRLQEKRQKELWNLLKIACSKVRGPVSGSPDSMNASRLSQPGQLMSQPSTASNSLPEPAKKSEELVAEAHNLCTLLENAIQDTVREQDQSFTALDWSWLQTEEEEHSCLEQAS

[11] = molecular target: Mitogen-activated protein kinase kinase kinase kinase 4 (Homo sapiens, UniProt O95819); experiment: Selectivity interaction (KinomeScan (DiscoverX)) EUB0000695a MAP4K4; settings: at 100 nM
Mitogen-activated protein kinase kinase kinase kinase 4, sequence (O95819 2-1239 limits assumed): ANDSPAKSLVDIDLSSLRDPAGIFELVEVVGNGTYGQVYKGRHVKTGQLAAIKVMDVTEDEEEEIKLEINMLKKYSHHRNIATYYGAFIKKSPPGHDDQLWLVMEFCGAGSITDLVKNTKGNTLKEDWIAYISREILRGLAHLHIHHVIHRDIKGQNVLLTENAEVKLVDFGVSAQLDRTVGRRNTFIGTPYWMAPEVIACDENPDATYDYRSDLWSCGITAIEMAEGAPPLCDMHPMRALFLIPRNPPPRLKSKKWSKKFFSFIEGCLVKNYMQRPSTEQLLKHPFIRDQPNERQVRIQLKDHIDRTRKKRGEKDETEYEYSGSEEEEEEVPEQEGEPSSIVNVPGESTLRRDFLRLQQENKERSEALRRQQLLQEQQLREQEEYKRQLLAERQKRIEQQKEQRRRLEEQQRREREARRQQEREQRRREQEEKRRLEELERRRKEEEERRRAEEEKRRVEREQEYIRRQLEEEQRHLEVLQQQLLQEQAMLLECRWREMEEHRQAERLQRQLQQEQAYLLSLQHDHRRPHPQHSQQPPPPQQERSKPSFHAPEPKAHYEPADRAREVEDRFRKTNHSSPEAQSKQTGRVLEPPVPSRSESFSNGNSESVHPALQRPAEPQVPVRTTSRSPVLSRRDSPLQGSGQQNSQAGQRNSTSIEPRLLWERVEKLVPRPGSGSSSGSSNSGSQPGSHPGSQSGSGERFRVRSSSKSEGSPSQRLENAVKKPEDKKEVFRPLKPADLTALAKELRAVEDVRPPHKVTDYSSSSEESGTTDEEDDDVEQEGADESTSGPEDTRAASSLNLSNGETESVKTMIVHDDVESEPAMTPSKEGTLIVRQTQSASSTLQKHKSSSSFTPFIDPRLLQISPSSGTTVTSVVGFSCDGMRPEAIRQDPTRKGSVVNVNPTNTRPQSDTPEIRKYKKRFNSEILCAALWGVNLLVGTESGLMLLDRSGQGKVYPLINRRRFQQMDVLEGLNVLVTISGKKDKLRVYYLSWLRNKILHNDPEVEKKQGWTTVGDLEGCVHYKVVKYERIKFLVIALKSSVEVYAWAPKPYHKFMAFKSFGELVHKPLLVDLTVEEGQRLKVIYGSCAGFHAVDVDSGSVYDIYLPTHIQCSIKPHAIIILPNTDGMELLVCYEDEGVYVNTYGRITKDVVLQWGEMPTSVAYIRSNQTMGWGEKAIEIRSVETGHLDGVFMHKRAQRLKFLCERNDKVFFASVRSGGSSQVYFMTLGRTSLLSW

[12] = molecular target: Protein kinase C delta type (Homo sapiens) (UniProt Q05655); experiment: Selectivity interaction (KinomeScan (DiscoverX)) EUB0000695a PRKCD; settings: at 100 nM
Protein kinase C delta type (Homo sapiens), sequence (Q05655 whole entry, looked up): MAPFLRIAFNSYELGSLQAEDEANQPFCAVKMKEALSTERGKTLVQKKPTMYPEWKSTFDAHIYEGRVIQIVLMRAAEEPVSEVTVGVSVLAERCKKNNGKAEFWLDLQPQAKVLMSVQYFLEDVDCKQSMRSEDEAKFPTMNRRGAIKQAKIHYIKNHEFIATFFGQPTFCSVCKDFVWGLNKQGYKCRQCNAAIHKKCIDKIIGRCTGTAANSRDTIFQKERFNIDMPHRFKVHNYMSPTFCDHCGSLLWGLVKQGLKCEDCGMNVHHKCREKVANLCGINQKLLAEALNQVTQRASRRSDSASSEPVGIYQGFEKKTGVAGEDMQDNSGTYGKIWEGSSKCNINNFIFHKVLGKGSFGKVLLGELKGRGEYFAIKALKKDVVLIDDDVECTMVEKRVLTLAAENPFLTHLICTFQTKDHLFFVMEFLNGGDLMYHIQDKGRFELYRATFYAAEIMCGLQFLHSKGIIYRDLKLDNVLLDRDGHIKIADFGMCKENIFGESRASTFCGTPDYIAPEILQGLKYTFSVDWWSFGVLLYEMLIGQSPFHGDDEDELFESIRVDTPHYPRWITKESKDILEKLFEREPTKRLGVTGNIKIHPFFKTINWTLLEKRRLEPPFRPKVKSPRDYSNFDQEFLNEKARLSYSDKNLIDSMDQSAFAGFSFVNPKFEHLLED

Ribosomal protein S6 kinase alpha-1, sequence (Q15418 whole entry): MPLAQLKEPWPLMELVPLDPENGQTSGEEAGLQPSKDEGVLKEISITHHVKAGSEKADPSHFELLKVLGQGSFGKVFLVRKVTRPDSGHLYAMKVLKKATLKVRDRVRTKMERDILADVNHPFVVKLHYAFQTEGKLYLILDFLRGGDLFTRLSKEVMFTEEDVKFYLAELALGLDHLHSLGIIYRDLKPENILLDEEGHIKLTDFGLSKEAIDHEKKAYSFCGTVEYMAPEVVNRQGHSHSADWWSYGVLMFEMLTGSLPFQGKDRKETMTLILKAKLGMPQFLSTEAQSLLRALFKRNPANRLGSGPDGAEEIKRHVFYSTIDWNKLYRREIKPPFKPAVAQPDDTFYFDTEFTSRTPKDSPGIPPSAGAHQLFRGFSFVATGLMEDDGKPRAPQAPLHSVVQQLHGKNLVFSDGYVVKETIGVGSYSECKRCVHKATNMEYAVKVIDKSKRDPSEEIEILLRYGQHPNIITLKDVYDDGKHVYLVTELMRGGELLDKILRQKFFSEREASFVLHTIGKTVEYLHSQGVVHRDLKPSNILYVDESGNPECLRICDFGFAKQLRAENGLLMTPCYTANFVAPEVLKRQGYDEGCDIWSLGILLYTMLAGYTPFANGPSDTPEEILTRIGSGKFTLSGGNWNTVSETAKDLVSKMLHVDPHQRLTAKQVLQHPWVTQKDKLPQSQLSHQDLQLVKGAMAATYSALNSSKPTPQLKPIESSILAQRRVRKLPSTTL
Mitogen-activated protein kinase 6 (Homo sapiens), sequence (Q16659 whole entry): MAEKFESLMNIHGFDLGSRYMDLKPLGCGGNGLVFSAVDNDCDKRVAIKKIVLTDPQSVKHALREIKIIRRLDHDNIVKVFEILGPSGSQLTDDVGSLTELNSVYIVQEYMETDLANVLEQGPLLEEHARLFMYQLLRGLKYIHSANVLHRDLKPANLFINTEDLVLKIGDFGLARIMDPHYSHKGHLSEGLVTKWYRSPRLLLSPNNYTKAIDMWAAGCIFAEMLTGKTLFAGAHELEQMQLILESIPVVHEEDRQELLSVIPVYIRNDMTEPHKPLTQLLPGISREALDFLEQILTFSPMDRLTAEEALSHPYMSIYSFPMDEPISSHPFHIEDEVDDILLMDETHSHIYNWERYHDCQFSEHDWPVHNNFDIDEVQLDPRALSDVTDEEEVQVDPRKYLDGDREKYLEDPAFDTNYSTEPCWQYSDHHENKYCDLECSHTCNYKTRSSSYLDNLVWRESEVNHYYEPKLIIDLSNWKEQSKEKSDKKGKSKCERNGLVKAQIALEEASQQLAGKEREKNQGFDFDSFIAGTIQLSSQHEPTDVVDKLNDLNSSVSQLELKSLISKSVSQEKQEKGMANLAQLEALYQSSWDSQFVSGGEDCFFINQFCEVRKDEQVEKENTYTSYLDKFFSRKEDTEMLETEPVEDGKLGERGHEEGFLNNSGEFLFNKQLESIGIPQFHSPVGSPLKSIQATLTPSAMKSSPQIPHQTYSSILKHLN

N#Cc1cccc(-c2c[nH]c3ncnc(N4CCOCC4)c23)c1
% of inhibition [1]: 13%

Cc1cc([C@@H](C)Nc2ccccc2C(=O)O)c2nc(N3CCOCC3)cc(=O)n2c1 [AZD-6482]
% of control [2]: 100%

CC[C@@H]1[C@H](F)C(=O)N[C@@H]1COc1nccc2cc(C(N)=O)c(OC)cc12 [ZIMLOVISERTIB]
% of inhibition [3]: 4.9%

Cc1cc(CN)cc(C)c1-c1ncn(C)c1-c1cncn1C
dTagg [4]: 0.1 K

COc1cc(Nc2nc(C)cc(-c3cnn4nc(OC)ccc34)n2)cc(C(F)(F)F)c1
% of control [5]: 97% | % of control [6]: 96% | % of control [7]: 94%

COc1cc(C(=O)N2CC[C@@H](O)[C@@H](N)C2)cc2nc(-c3cc4ccccc4n3CC3CC3)n(C)c12
pXC50 [8]: 4.7 M

CCC(=O)N1CCN(c2ccc(-n3c(=O)ccc4cnc5ccc(-c6cnc7ccccc7c6)cc5c43)cc2C(F)(F)F)CC1
% of control [9]: 0%

Cn1cc(-n2cnc3c(NCc4nc5cc(Cl)c(Cl)cc5[nH]4)nc(N4CCOCC4)nc32)cn1
% of control [10]: -3.93%

Cc1cc(F)c(C(=O)Nc2cccc(-c3nncn3C(C)C)n2)cc1-n1cnc(C2CC2)c1
% of control [11]: 100% | % of control [12]: 100%
